Experimental findings from ChEMBL document CHEMBL1201862, “PubChem BioAssay data set” (2004) are described below.

Some test systems named below: OVCAR-5; HL-60; UACC-257; A498; SF-295; HT-29; Malme-3M; MDA-MB-435; SR; NCI-H226; OVCAR-4; HCC 2998; HOP-92; OVCAR-3; SNB-75; RXF 393; UACC-62; SK-MEL-5; MCF7; MOLT-4.
Test in all cases: inhibition of tumour cell growth, NCI panel, 48 h

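Cells were grown in 96-well plates and exposed to each compound for 48 hours at five concentrations; endpoints were interpolated linearly between bracketing concentrations, or set to the highest concentration if not reached. The concentration for 50% growth inhibition is given as GI50.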 The source made the active and inactive calls. Rule as the data show it: active = GI50 up to about 1.1 µM and inactive = higher.

With `O=c1cc(-c2cc(O)c(O)c(-c3c(O)cc4oc(-c5ccc(O)c(O)c5)cc(=O)c4c3O)c2)oc2cc(O)cc(O)c12`, the GI50 in the test with OVCAR-5, in the test with HL-60, in the test on UACC-257, with A498, with SF-295 and in the test with HT-29 was > 25 µM (inactive) in each case. The GI50 in the test on Malme-3M, in the test with MDA-MB-435, in the test with SR, in the test with NCI-H226, in the test on OVCAR-4 and in the test with HCC 2998 was > 25 µM (inactive) in each case. For the same compound, the GI50 with HOP-92 was > 25 µM (inactive); in the test with OVCAR-3 it was > 25 µM (inactive); in the test on SNB-75 it was 24.9 µM (inactive); with RXF 393 it was > 25 µM (inactive); in the test on UACC-62, > 25 µM (inactive); with SK-MEL-5, > 25 µM (inactive). Further, the GI50 in the test on MCF7 and in the test with MOLT-4 was > 25 µM (inactive) in each case.
Take `CC(C)NC(=O)CN1CCN(C2=C(Cl)C(=O)c3c(O)ccc(O)c3C2=O)CC1`: the GI50 is 2.92 µM (inactive) in the test with OVCAR-5; 0.187 µM (active) with HL-60; 1.79 µM (inactive) in the test on UACC-257; 3.05 µM (inactive) in the test with A498; 7.1 µM (inactive) in the test on SF-295; 1.26 µM (inactive) in the test on HT-29. Besides, the GI50 in the test with Malme-3M was 1.04 µM (active); in the test with MDA-MB-435, 1.62 µM (inactive); in the test on SR, 0.148 µM (active); with NCI-H226, 21.5 µM (inactive); in the test on OVCAR-4 it was 1.71 µM (inactive); with HCC 2998, 2.92 µM (inactive). Moreover, the GI50 with HOP-92 was 2.24 µM (inactive); with OVCAR-3, 1.57 µM (inactive); in the test on SNB-75, 3.46 µM (inactive); in the test on RXF 393 it was 1.54 µM (inactive); in the test with UACC-62, 1.73 µM (inactive); with SK-MEL-5, 2 µM (inactive). Besides, the GI50 is 1.49 µM (inactive) in the test with MCF7 and 0.36 µM (active) in the test on MOLT-4.
As for `COC(=O)CCC(C)C1CCC2C3CCC4CC5CCC4(C)C3(O5)C(Br)C(Br)C12C` (stereo not given), the GI50 in the test with OVCAR-5 is > 100 µM (inactive); with HL-60, 2.55 µM (inactive); in the test on UACC-257, > 100 µM (inactive); with A498 it was > 100 µM (inactive); with SF-295, > 100 µM (inactive); in the test on HT-29, 56.2 µM (inactive). In addition, the GI50 in the test with Malme-3M was > 100 µM (inactive); in the test with MDA-MB-435, > 100 µM (inactive); in the test with SR it was > 100 µM (inactive); in the test on NCI-H226 it was 45.4 µM (inactive); in the test on OVCAR-4, > 100 µM (inactive); in the test with HCC 2998, > 100 µM (inactive). The GI50 is > 100 µM (inactive) in the test on HOP-92; > 100 µM (inactive) in the test on OVCAR-3; > 100 µM (inactive) in the test on SNB-75; > 100 µM (inactive) with RXF 393; > 100 µM (inactive) in the test with UACC-62; 72.9 µM (inactive) with SK-MEL-5. Besides, the GI50 with MCF7 and in the test with MOLT-4 was > 100 µM (inactive) each time.
As to `CC1CCC2N(C1)CC1C3(O)CC45OC6(O)C(O)CCC4(C)C6CCC5C3(O)CC(O)C1(O)C2(C)O` (stereo not given), the GI50 with OVCAR-5 is > 100 µM (inactive); in the test on HL-60, > 100 µM (inactive); in the test on UACC-257, > 100 µM (inactive); with A498, > 77.6 µM (inactive); in the test with SF-295 it was > 100 µM (inactive); with HT-29, > 100 µM (inactive). In addition, the GI50 in the test on Malme-3M, in the test with MDA-MB-435, in the test with SR, in the test on NCI-H226, in the test on OVCAR-4 and with HCC 2998 was > 100 µM (inactive) each time. In addition, the GI50 in the test on HOP-92, with OVCAR-3, in the test on SNB-75, in the test on RXF 393, with UACC-62 and in the test with SK-MEL-5 was > 100 µM (inactive) throughout. In addition, the GI50 in the test on MCF7 and in the test on MOLT-4 was > 100 µM (inactive) each time.
